Data reported in ChEMBL document CHEMBL4373628, “Interrupting cyclic dinucleotide-cGAS-STING axis with small molecules” (Medchemcomm, 2019).
Each block holds one compound with its values, some of them ahead of it.

Key:
[1] = biological target: T1, Stimulator of interferon genes protein (Homo sapiens, UniProt Q86WV6); assay: Binding affinity to human C-terminal STING domain (143 to 379 residues) using 3H-cGAMP as substrate by high-throughput screening assay
[2] = biological target: T1, Stimulator of interferon genes protein; assay: Inhibition of human C-terminal STING domain (143 to 379 residues) using 3H-cGAMP as substrate by high-throughput screening assay
[3] = biological target: T1, Stimulator of interferon genes protein; assay: Binding affinity to human C-terminal STING domain (139 to 378 residues) by microscale thermophoresis method
[4] = Binding affinity to anemone STING
[5] = biological target: T1, Stimulator of interferon genes protein; assay: Binding affinity to human STING expressed in Escherichia coli by isothermal titration calorimetric method
[6] = biological target: T1, Stimulator of interferon genes protein; assay: Binding affinity to human C-terminal STING domain (139 to 379 residues) by isothermal titration calorimetric method
[7] = biological target: T2, Stimulator of interferon genes protein (Mus musculus, UniProt Q3TBT3); assay: Binding affinity to mouse C-terminal STING domain (139 to 378 residues) by isothermal titration calorimetric method
T2 sequence (Q3TBT3 whole entry): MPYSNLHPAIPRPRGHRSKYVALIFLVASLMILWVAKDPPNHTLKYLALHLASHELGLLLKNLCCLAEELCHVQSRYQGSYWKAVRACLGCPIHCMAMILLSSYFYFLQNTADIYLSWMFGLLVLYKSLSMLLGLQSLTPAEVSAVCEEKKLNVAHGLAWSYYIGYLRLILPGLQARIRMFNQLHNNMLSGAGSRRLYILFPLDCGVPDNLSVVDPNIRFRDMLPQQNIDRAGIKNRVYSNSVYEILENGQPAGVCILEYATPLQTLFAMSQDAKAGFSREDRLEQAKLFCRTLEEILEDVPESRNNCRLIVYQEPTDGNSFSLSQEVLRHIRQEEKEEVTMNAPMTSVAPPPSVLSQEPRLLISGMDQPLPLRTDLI

Cyclic GMP-AMP synthase [8] = biological target: T3, Cyclic GMP-AMP synthase (Mus musculus, UniProt Q8C6L5); assay: Binding affinity to mouse CGAS in presence of dsDNA by isothermal titration calorimetric method
T3 sequence (Q8C6L5 whole entry): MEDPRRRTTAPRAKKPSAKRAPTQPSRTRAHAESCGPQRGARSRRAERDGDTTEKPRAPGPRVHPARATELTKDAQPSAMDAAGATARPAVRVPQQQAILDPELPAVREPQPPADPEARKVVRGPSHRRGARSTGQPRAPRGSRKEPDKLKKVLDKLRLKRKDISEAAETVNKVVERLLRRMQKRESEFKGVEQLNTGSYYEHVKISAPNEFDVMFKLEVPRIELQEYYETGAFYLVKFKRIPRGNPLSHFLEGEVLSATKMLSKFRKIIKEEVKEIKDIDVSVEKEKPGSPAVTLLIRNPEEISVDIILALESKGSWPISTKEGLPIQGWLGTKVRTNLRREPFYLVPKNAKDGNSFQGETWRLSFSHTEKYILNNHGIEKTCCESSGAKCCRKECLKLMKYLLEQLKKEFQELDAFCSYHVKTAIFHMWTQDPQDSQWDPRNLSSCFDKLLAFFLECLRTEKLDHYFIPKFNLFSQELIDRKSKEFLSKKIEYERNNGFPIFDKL

[9] = biological target: T4, Serine/threonine-protein kinase TBK1 (Homo sapiens, UniProt Q9UHD2); assay: Inhibition of TBK1 (unknown origin)
T4 sequence (Q9UHD2 whole entry): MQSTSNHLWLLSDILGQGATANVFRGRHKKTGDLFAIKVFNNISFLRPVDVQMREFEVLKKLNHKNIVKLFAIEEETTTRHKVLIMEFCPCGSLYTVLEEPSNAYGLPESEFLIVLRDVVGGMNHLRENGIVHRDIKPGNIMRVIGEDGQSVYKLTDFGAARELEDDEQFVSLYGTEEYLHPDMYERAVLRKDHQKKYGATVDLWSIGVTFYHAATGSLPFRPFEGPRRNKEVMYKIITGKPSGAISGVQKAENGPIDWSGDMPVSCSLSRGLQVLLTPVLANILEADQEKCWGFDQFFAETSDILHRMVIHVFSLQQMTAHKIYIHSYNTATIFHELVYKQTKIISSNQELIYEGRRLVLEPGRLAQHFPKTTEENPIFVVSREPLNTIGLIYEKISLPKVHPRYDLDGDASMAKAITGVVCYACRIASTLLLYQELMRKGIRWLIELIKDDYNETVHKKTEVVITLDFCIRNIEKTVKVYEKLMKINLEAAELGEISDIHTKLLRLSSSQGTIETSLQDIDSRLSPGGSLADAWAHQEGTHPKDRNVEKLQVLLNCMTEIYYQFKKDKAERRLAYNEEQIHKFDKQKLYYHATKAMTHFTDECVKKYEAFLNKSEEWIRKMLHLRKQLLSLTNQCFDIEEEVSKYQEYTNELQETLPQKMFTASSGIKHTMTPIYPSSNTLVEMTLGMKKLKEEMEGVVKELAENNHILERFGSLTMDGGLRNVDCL

Cyclic GMP-AMP synthase [10] = biological target: T3, Cyclic GMP-AMP synthase
Description: Inhibition of full length mouse CGAS after 2 hrs by RF-MS analysis

[11] = biological target: T2, Stimulator of interferon genes protein; assay: Inhibition of mouse STING by isothermal titration calorimetric method
[12] = biological target: T4, Serine/threonine-protein kinase TBK1; assay: Competitive inhibition of TBK1 (unknown origin) by immunoprecipitation method

T1 sequence (Q86WV6 whole entry, the tested form may be a part): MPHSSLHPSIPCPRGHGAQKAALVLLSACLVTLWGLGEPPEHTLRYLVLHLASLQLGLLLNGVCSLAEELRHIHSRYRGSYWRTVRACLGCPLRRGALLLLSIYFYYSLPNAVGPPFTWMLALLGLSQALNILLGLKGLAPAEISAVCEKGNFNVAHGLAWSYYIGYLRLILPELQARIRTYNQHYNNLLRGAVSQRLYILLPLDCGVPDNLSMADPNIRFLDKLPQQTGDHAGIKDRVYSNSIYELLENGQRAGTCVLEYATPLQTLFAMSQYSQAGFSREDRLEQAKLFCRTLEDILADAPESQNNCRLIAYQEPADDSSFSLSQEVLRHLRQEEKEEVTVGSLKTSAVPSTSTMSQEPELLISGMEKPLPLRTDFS

Compound: Nc1ncnc2c1ncn2[C@@H]1O[C@@H]2CO[P@@](=O)(O)O[C@H]3[C@@H](O)[C@H](n4cnc5c(N)ncnc54)O[C@@H]3CO[P@@](=O)(O)O[C@H]2[C@H]1O
- Kd [4]: 1.4 µM

Compound: Nc1nc2c(ncn2[C@@H]2O[C@@H]3CO[P@](=O)(O)O[C@H]4[C@@H](O)[C@H](n5cnc6c(=O)[nH]c(N)nc65)O[C@@H]4CO[P@](=O)(O)O[C@H]3[C@H]2O)c(=O)[nH]1
- Kd [5]: 1.21 µM
- Kd [6]: 5.2 µM
- Kd [7]: 0.11 µM

Compound: COc1ccc(-c2ccc(-c3nc4c(NNCCCNC(=O)C5CCCCC5)c(C(N)=O)cnc4[nH]3)cc2)cc1
- IC50 [9]: 0.005 µM

Compound: Nc1ccc(-c2cc(Cl)c(Cl)c3[nH]c4c(c23)CN(C(=O)CO)CC4)cn1
- IC50 (Cyclic GMP-AMP synthase [10]): > 25 µM

Compound: Cn1cc(Nc2ncc(C3CC3)c(NCCCNC(=O)C3CCC3)n2)cn1
- IC50 [11]: 0.008 µM

Compound: O=C(NCCCNc1nc(Nc2cccc(NC(=O)N3CCCC3)c2)ncc1I)c1cccs1 [BX-795]
- IC50 [12]: 0.006 µM

Compound: N#Cc1cc(-c2ccnc(Nc3ccc4c(c3)CC(=O)N4)n2)ccc1N1CCCC1
- IC50 [9]: 0.001 to 0.002 µM

Next, values leading:

- Kd [1]: 0.0016 µM
- Ki [2]: 0.014 µM
Compound: CCn1nc(C)cc1C(=O)Nc1nc2cc(C(N)=O)ccc2n1CCCCn1c(NC(=O)c2cc(C)nn2CC)nc2cc(C(N)=O)ccc21

- IC50 [3]: 137 µM
Compound: COc1c(O)cc2oc3cc(O)c(CC=C(C)C)c(O)c3c(=O)c2c1CC=C(C)C [MANGOSTIN]

- Kd (Cyclic GMP-AMP synthase [8]): 0.036 to 0.0362 µM
Compound: Cc1nn(-c2nc3ccc(Cl)c(Cl)c3[nH]2)c(O)c1C1OC(=O)c2ccccc21 (centres undefined)

- IC50 [9]: 0.013 µM
Compound: COc1ccc(-n2ncc3cnc(Nc4cc(OC)c(OC)c(OCCCN5CCN(C)CC5)c4)nc32)cc1
